In patent US9266835B2, “Quinoline derivatives useful as CB-1 inverse agonists” (JANSSEN PHARMACEUTICA NV, priority 2014, dated 2016) one finds EC50 data, which are given here for 21 compounds.

Structures can show the parent of a compound that is named as a salt.

For orientation: EC50 means the midpoint of the concentration-response curve.

Assay [1] addresses Human CB1R (Cannabinoid receptor 1) (Homo sapiens (Human), UniProt P21554). Put plainly: CB-1 in vitro cAMP assay (HTRF), inverse agonism. The assay is classed as cell-based. The following applies: mean where tested more than once.
Assay [2] deals with Human CB2R (Cannabinoid receptor 2) (Homo sapiens (Human), UniProt P34972). Put plainly: CB-2 in vitro cAMP assay (HTRF), inverse agonism. The following applies: mean where tested more than once. Format: cell-based. (In general: cAMP levels reflect the balance of adenylyl cyclase and phosphodiesterase activity.)
Chain of Human CB2R (Cannabinoid receptor 2) (P34972 whole entry): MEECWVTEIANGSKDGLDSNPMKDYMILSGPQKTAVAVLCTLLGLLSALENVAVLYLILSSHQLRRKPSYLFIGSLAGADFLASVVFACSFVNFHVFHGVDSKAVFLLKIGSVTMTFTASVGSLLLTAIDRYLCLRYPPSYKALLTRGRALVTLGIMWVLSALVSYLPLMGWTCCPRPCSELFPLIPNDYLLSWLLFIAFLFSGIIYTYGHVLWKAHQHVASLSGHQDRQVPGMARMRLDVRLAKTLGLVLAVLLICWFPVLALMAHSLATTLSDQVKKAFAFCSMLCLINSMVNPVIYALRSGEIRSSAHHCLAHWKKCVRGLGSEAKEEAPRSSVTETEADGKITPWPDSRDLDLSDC

Chain of Human CB1R (Cannabinoid receptor 1) (P21554 whole entry): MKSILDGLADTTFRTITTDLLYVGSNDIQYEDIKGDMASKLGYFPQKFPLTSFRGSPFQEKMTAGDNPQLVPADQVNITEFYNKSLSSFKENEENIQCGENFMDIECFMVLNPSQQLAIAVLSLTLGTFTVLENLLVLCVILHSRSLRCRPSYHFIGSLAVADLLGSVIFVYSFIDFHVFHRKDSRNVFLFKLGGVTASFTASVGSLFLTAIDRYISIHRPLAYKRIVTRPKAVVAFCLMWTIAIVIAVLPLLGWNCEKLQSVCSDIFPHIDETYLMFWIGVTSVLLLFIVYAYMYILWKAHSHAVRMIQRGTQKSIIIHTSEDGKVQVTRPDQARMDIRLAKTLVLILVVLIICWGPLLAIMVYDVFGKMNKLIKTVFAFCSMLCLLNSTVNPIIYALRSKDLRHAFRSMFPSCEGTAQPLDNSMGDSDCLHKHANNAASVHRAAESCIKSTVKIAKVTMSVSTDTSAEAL

On to `O=C(O)CCCOc1ccc(Nc2cc(=O)[nH]c3ccc(C(c4ccc(Cl)cc4)c4ccc(Cl)cc4)cc23)cc1` [Compound 121, 4-[4-({6-[Bis(4-chlorophenyl)methyl]-2-oxo-1,2-dihydroquinolin-4-yl}amino)phenoxy]butanoic acid], for which the EC50 in assay [1] is 1010 nM; in assay [2], > 10 µM.

Consider `O=C(O)c1ccc(S(=O)(=O)N2CCC(Nc3cc(=O)[nH]c4ccc(C(c5ccc(Cl)cc5)c5ccc(Cl)cc5)cc34)CC2)cc1` [Compound 122, 4-((4-((6-(bis(4-chlorophenyl)methyl)-2-oxo-1,2-dihydroquinolin-4-yl)amino)piperidin-1-yl)sulfonyl)benzoic acid], for which the EC50 in assay [1] is 159 nM; in assay [2] it was 0.24 µM.

In the case of `NC(=O)CCCOc1ccc(Nc2cc(=O)[nH]c3ccc(C(c4ccc(Cl)cc4)c4ccc(Cl)cc4)cc23)cc1` [Compound 123, 4-[4-({6-[Bis(4-chlorophenyl)methyl]-2-oxo-1,2-dihydroquinolin-4-yl}amino)phenoxy]butanamide], the concentration giving a half-maximal response (EC50) in assay [1] is 219 nM; in assay [2], > 10 µM.

In the case of `COC(=O)Cc1ccc(Nc2cc(=O)[nH]c3ccc(C(c4ccc(Cl)cc4)c4ccc(Cl)cc4)cc23)cc1` [Compound 124, Methyl [4-({6-[bis(4-chlorophenyl)methyl]-2-oxo-1,2-dihydroquinolin-4-yl}amino)phenyl]acetate], the results for the 50% effective concentration (EC50) in assay [1] and in assay [2] were 27 nM and > 10 µM, respectively.

`O=C(O)Cc1ccc(Nc2cc(=O)[nH]c3ccc(C(c4ccc(Cl)cc4)c4ccc(Cl)cc4)cc23)cc1` [Compound 125, [4-({6-[Bis(4-chlorophenyl)methyl]-2-oxo-1,2-dihydroquinolin-4-yl}amino)phenyl]acetic acid]: the 50% effective concentration (EC50) in assay [1] was 2480 nM; in assay [2] it was > 10 µM.

On to `NC(=O)Cc1ccc(Nc2cc(=O)[nH]c3ccc(C(c4ccc(Cl)cc4)c4ccc(Cl)cc4)cc23)cc1` [Compound 126, 2-[4-({6-[Bis(4-chlorophenyl)methyl]-2-oxo-1,2-dihydroquinolin-4-yl}amino)phenyl]acetamide], for which the values for the EC50 in assay [1] and in assay [2] were 79 nM and 8.1 µM, respectively.

With `O=C(O)c1ccc(CN2CCC(Nc3cc(=O)[nH]c4ccc(C(c5ccc(Cl)cc5)c5ccc(Cl)cc5)cc34)CC2)cc1` [Compound 127, 4-{[4-({6-[Bis(4-chlorophenyl)methyl]-2-oxo-1,2-dihydroquinolin-4-yl}amino)piperidin-1-yl]methyl}benzoic acid], the values for the concentration for a half-maximal effect (EC50) in assay [1] and in assay [2] were 876 nM and > 10 µM, respectively.

Turning to `O=C(O)c1ccc(CN2CCC(Nc3cc(=O)[nH]c4ccc(C(c5ccc(Cl)cc5)c5ccc(Cl)cc5)cc34)CC2)s1` [Compound 128, 5-{[4-({6-[Bis(4-chlorophenyl)methyl]-2-oxo-1,2-dihydroquinolin-4-yl}amino)piperidin-1-yl]methyl}thiophene-2-carboxylic acid], the values for the EC50 in assay [1] and in assay [2] were 293 nM and 9.7 µM, respectively.

In the case of `O=C(O)c1cccc(CN2CCC(Nc3cc(=O)[nH]c4ccc(C(c5ccc(Cl)cc5)c5ccc(Cl)cc5)cc34)CC2)c1` [Compound 129, 3-((4-((6-(bis(4-chlorophenyl)methyl)-2-oxo-1,2-dihydroquinolin-4-yl)amino)piperidin-1-yl)methyl)benzoic acid], the EC50 in assay [1] was 157 nM; in assay [2] it was > 10 µM.

As to `O=C(O)c1ccc(S(=O)(=O)N2CCC(Nc3cc(=O)[nH]c4ccc(C(c5ccc(Cl)cc5)c5ccc(Cl)cc5)cc34)CC2)s1` [Compound 130, 5-[4-([6-[bis(4-chlorophenyl)methyl]-2-hydroxyquinolin-4-yl]amino)piperidine-1-sulfonyl]thiophene-2-carboxylic acid, trifluoroacetic acid salt], the results for the EC50 in assay [1] and in assay [2] were 113 nM and 0.69 µM, respectively.

Regarding `O=C(O)c1ccc(S(=O)(=O)N2CCC(Nc3cc(=O)[nH]c4ccc(C(c5ccc(Cl)cc5)c5ccc(Cl)cc5)cc34)CC2)o1` [Compound 131, 5-{[4-({6-[Bis(4-chlorophenyl)methyl]-2-oxo-1,2-dihydroquinolin-4-yl}amino)piperidin-1-yl]sulfonyl}furan-2-carboxylic acid], the concentration for a half-maximal effect (EC50) was 251 nM in assay [1] and 3.93 µM in assay [2].

Take `O=c1cc(Nc2ccc(-c3ccccc3)cc2)c2cc(C(c3ccc(Cl)cc3)c3ccc(Cl)cc3)ccc2[nH]1` [Compound 133, 4-(Biphenyl-4-ylamino)-6-[bis(4-chlorophenyl)methyl]-quinolin-2(1H)-one]: the EC50 in assay [1] was 73 nM; in assay [2], > 10 µM.

As to `Cc1ccc(Nc2cc(=O)[nH]c3ccc(C(c4ccc(Cl)cc4)c4ccc(Cl)cc4)cc23)cn1` [Compound 134, 6-[Bis(4-chlorophenyl)methyl]-4-[(6-methylpyridin-3-yl)amino]quinolin-2(1H)-one], the concentration giving a half-maximal response (EC50) is 300 nM in assay [1] and 6.7 µM in assay [2].

For the compound `O=c1cc(NC2CCN(S(=O)(=O)C(F)(F)F)CC2)c2cc(C(c3ccc(Cl)cc3)N3CCN(c4ccccc4)CC3)ccc2[nH]1` (stereo not drawn) [Compound 137, 6-((4-chlorophenyl)(4-phenylpiperazin-1-yl)methyl)-4-((1-((trifluoromethyl)sulfonyl)piperidin-4-yl)amino)quinolin-2(1H)-one], the EC50 in assay [1] was 290 nM; in assay [2] it was > 10 µM.

Take `O=C(c1ccc(Nc2cc(=O)[nH]c3ccc(C(c4ccc(Cl)cc4)c4ccc(Cl)cc4)cc23)cc1F)N1CCCC1` [Compound 138]: the EC50 turned out to be 227 nM in assay [1] and 0.75 µM in assay [2].

For `CCCCNc1cc(C(c2ccc(Cl)cc2)c2ccc(Cl)cc2)cc2c(NC3CCN(S(=O)(=O)C(F)(F)F)CC3)cc(=O)n(C)c12` [Compound 139, 6-[bis(4-chlorophenyl)methyl]-8-(butylamino)-1-methyl-4-[[1-(trifluoromethane)sulfonylpiperidin-4-yl]amino]-1,2-dihydroquinolin-2-one], the EC50 in assay [1] was > 10000 nM; in assay [2] it was > 10 µM.

Regarding `COCCCc1cc(C(c2ccc(Cl)cc2)c2ccc(Cl)cc2)cc2c(NC3CCN(S(=O)(=O)C(F)(F)F)CC3)cc(=O)[nH]c12` [Compound 140, 6-(bis(4-chlorophenyl)methyl)-8-(3-methoxypropyl)-4-((1-((trifluoromethyl)sulfonyl)piperidin-4-yl)amino)quinolin-2(1H)-one], the 50% effective concentration (EC50) in assay [1] came to 13 nM; in assay [2] it was 0.06 µM.

Take `NCCCCNc1cc(C(c2ccc(Cl)cc2)c2ccc(Cl)cc2)cc2c(NC3CCN(S(=O)(=O)C(F)(F)F)CC3)cc(=O)[nH]c12` [Compound 141, 8-((4-aminobutyl)amino)-6-(bis(4-chlorophenyl)methyl)-4-((1-((trifluoromethyl)sulfonyl)piperidin-4-yl)amino)quinolin-2(1H)-one]: the values for the EC50 in assay [1] and in assay [2] were 625 nM and > 10 µM, respectively.

In the case of `OC(c1ccc(Cl)cc1)(c1ccc(Cl)cc1)c1ccc2nccc(/C=C/c3ccccc3)c2c1` [Compound 501, (E)-bis(4-chlorophenyl)(4-styrylquinolin-6-yl)methanol], the EC50 was > 10000 nM in assay [1] and > 10 µM in assay [2].

On to `O=c1cc(/C=C/c2ccccc2)c2cc(C(c3ccc(Cl)cc3)c3ccc(Cl)cc3)ccc2[nH]1` [Compound 502], for which the EC50 is 580 nM in assay [1] and > 10 µM in assay [2].

As for `Clc1ccc(C(c2ccc(Cl)cc2)c2ccc3nccc(/C=C/c4ccccc4)c3c2)cc1` [Compound 503, (E)-6-(bis(4-chlorophenyl)methyl)-4-styrylquinoline], the 50% effective concentration (EC50) in assay [1] was 191 nM; in assay [2], > 10 µM.
